This assay deals with T1, hP2X7 (Homo sapiens, UniProt Q99572).
T1 sequence (Q99572 1-595): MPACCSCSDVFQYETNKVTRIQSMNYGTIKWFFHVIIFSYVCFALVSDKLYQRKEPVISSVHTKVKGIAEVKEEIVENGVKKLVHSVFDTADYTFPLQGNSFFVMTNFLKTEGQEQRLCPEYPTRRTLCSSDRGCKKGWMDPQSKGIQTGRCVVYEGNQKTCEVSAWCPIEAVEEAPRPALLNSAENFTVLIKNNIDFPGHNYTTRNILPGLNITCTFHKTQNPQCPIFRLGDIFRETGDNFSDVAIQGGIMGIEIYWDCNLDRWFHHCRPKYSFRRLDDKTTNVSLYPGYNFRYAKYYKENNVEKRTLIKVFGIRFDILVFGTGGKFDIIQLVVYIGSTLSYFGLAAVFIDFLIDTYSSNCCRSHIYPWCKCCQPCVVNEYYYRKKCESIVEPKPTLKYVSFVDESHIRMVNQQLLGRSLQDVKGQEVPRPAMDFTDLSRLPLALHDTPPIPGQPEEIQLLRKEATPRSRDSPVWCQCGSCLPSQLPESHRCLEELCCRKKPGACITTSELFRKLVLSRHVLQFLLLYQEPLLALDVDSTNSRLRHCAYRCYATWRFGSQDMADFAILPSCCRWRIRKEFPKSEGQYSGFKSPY
Description: TEVC recovery of current after complete inhibition (IC100), hP2X7. The conditions noted are these: 120 s buffer wash, 100 μM ATP. It is filed as cell-based. On the set-up: hP2X7-WT constructs used for electrophysiology are similarly unmodified full-length, wild-type receptor constructs; expressed in transfected cells; host or cells: Xenopus laevis oocytes injected with mRNA made from pcDNA3.1x. The text has this:
Experiments were run in triplicate.

The values that follow come from PMC11451537, “P2X7 receptors exhibit at least three modes of allosteric antagonism” (Science Advances, 2024).

`O=S(=O)(O)c1ccc(N=C2C=CC(=C(c3ccc(Nc4ccc(S(=O)(=O)O)cc4)cc3)c3ccc(Nc4ccc(S(=O)(=O)O)cc4)cc3)C=C2)cc1` [methyl blue]: the “Recovery of activation (% of baseline current)” value reads like this: (hP2X7, 40-s IC100 application) 34 ± 3%; (hP2X7, 120-s IC100 application) 17 ± 6%; (hP2X7, 240-s IC100 application) 2 ± 1%.
